# B1: AviM PT domain (product template domain of the orsellinic acid synthase AviM) (domain or fragment, Streptomyces viridochromogenes Tü57)
# chain: DSHTLLGTPGGVAGSDLRLWHSTLDDDSRPYPGSHALNGVEIVPAAVLAVTFLAAGAEGEERRALQDMTMTHPVLTAGQRQIQVVREGEVVRLASRTVADAADPNPAWLVHAEARTAAPDLAGLAARSLLDPGEHRLEPADPGLVSRRLAEVGVPSTGFDWSVERLSAGLGVLHAQVLSPDASSWAPLLDAVMSIAPAAFVGLPQLRMVVHVDEITVDGTPPEAATVEVALDPRVADTVHALVTDGEGRPVASLRGLRYP
# notes: AviM, orsellinic acid synthase (iterative type I PKS, KS-AT-PT-ACP) of Streptomyces viridochromogenes Tü57; excised PT domain cloned as an 816 bp NdeI/EcoRI fragment in pET28a; An 816 bp fragment codes for about 272 residues, more than the 260 of residues 915-1174; also called bacterial PT domain; source: E. coli BL21(DE3), purified (Nickel-NTA, gel filtration); not shown: His6, N-terminal, kept
# Experiments:
# [1] = molecular target: T1, AviM (Streptomyces viridochromogenes, UniProt O05170); test: LC-MS detection of orsellinic acid product; assay type: biochemical; conditions: 50 uM enzyme, 10 mM MgCl2, pH 7.4, 25 °C, with CoA and Sfp
# T1 construct: expressed in E. coli BAP1 (sfp), phosphopantetheinylated with CoA and Sfp before assay
# [2] = molecular target: the molecule itself; test: SEC; Superdex 200/Superose 6 gel filtration column, 150 mM NaCl, 10 mM Tris pH 7.5, 4 °C
# T1 sequence (O05170 entry or part of it): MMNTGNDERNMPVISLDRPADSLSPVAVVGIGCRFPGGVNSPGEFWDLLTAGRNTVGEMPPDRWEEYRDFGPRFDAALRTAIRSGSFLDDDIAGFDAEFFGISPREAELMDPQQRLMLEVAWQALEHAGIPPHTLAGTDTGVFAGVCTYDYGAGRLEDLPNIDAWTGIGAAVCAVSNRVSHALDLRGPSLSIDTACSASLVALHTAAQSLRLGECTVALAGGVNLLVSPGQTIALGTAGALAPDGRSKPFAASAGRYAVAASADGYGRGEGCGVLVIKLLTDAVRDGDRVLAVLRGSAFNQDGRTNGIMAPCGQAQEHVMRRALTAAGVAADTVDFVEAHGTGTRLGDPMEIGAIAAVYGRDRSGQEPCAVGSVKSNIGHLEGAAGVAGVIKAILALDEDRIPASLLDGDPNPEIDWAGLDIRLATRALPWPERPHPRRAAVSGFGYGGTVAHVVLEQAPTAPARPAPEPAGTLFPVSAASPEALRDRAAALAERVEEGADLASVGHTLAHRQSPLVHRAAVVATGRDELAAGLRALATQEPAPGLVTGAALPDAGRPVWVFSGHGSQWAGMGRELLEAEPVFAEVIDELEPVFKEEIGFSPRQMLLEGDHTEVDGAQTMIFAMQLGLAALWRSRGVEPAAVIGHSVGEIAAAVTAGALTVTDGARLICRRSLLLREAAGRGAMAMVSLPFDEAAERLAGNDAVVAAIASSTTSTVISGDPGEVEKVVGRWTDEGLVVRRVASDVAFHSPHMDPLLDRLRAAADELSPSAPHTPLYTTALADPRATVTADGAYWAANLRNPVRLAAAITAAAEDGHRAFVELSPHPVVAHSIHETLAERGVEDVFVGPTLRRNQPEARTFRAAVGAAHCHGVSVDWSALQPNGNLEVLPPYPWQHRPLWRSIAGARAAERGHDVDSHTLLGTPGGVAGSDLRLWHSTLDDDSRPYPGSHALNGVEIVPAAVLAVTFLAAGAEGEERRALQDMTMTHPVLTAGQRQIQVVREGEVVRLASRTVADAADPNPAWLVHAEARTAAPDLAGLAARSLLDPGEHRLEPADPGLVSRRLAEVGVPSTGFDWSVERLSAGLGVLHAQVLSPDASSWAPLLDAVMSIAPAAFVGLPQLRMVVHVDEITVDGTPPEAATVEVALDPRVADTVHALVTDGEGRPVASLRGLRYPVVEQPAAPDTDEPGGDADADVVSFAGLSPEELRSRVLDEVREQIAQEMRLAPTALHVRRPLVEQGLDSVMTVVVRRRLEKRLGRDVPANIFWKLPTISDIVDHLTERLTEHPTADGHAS
molecule,measurement,setting,value
CC(=O)SCCNC(=O)CCNC(=O)[C@H](O)C(C)(C)COP(=O)(O)OP(=O)(O)OC[C@H]1O[C@@H](n2cnc3c(N)ncnc32)[C@H](O)[C@@H]1OP(=O)(O)O [acetyl-CoA],LC-MS detection of orsellinic acid product,"[1]; starter unit, malonyl-CoA co-substrate",Trace amount of OSA was indeed produced when AviM was incubated with acetyl-CoA and malonyl-CoA
CC(C)(COP(=O)(O)OP(=O)(O)OC[C@H]1O[C@@H](n2cnc3c(N)ncnc32)[C@H](O)[C@@H]1OP(=O)(O)O)[C@@H](O)C(=O)NCCC(=O)NCCSC(=O)CC(=O)O [malonyl-CoA],LC-MS detection of orsellinic acid product,"[1]; extender unit, acetyl-CoA co-substrate",Trace amount of OSA was indeed produced when AviM was incubated with acetyl-CoA and malonyl-CoA
B1,stoichiometry N,[2],2
